Where “and” joins values, the source holds several entries; their conditions need not be identical. Equal entries are not always repeated. Calls of active or inactive are those of the source.
Legend:
SUMO-activating enzyme = SUMO-activating enzyme (Homo sapiens, UniProt Q9UBT2); assay: SUMOylation inhibitor hit validation, confirmation, SUMOylation inhibitor project, biochemical, AlphaScreen (AID 2018); assay type: functional
[1] = molecular target: DNA dC->dU-editing enzyme APOBEC-3A (Homo sapiens, UniProt P31941); assay: Dose Response confirmation of small molecule APOBEC3A DNA Deaminase Inhibitors via a fluorescence-based single-stranded DNA deaminase assay. [Related pubchem assays (depositor defined):AID493011, AID493024]; assay type: functional
DNA dC->dU-editing enzyme APOBEC-3A, sequence (P31941 whole entry, the tested form may be a part): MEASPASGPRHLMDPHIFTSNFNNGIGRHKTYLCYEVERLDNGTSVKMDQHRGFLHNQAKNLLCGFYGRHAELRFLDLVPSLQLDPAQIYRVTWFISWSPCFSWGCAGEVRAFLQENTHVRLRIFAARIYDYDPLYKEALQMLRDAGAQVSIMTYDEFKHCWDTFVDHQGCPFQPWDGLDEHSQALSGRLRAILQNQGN

[2] = molecular target: T1, Carboxy-terminal domain RNA polymerase II polypeptide A small phosphatase 1 (Homo sapiens, UniProt Q9GZU7); assay: inhibitors of CTDSP1, concentration-response testing, biochemical assay, absorbance-based, actives from ultra-high-throughput screening (AID 540297); assay type: functional
T1 sequence (Q9GZU7 whole entry): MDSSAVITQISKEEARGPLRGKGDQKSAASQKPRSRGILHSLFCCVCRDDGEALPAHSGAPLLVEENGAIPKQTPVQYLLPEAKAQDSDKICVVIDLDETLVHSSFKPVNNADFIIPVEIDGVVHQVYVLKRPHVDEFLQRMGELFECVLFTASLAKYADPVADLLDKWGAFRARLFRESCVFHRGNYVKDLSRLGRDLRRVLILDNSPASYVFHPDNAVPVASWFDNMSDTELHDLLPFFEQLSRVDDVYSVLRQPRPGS

[3] = molecular target: DNA dC->dU-editing enzyme APOBEC-3G (Homo sapiens, UniProt Q9HC16); assay type: functional;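 further: Dose-response counterscreen measuring inhibition of APOBEC3G DNA deaminase activity, run while confirming APOBEC3A inhibitors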
DNA dC->dU-editing enzyme APOBEC-3G, sequence (Q9HC16 whole entry): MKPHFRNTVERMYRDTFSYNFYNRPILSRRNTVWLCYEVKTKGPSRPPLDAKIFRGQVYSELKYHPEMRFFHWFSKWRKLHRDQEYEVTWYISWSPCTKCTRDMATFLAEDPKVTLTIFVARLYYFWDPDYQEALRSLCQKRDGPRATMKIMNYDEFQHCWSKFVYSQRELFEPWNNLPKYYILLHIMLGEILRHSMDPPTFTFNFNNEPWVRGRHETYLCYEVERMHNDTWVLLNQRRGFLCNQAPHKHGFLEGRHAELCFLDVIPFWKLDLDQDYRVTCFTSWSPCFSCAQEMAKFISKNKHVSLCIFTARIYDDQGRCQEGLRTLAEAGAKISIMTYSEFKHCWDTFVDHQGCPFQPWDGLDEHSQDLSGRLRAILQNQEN

cells = assay type: functional
[4] = HepG2 cell cytotoxicity, dose response, cytotoxicity control for non-replicating M. tuberculosis project (AID 489018); assay type: functional; settings: Mycobacterium tuberculosis
[5] = THP-1 cell cytotoxicity, dose response, cytotoxicity control for non-replicating M. tuberculosis project (AID 489025); assay type: functional
[6] = Vero E6 cell cytotoxicity, dose response, cytotoxicity control for non-replicating M. tuberculosis project, secondary assay (AID 492998); assay type: functional, VeroE6; settings: Vero C1008
Mucolipin-3 = molecular target: T2, Mucolipin-3 (Homo sapiens, UniProt Q8TDD5); assay: Fluorescence counterscreen assay for […] agonists: dose response cell-based high-throughput screening assay to identify agonists of the transient receptor potential channel ML3 (TRPML3). [Related pubchem assays: 1424, 1448 ]; assay type: functional
T2 sequence (Q8TDD5 whole entry): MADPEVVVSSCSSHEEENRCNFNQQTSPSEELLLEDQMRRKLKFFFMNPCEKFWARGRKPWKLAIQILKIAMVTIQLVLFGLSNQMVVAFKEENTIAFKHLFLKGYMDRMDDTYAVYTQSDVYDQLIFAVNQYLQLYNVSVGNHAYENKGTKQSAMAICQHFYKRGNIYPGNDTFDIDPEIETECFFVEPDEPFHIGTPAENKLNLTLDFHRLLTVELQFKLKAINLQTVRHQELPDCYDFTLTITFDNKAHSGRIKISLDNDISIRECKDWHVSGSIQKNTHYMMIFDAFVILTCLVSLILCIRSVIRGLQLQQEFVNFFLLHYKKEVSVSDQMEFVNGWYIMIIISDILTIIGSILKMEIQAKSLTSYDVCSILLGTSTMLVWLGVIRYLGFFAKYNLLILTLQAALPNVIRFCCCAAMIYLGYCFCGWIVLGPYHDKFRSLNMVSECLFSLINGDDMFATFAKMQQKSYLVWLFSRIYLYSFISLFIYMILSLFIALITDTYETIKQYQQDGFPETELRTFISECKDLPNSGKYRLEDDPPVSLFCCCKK

[7] = molecular target: T3, Probable nicotinate-nucleotide adenylyltransferase (Staphylococcus aureus (strain N315), UniProt P65502); assay type: functional, Staphylococcus aureus subsp. aureus N315;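 on IC50 Mean: confirmatory dose-response retesting of NadD inhibitor hits first found in an ultra-high-throughput screen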
T3 sequence (P65502 whole entry): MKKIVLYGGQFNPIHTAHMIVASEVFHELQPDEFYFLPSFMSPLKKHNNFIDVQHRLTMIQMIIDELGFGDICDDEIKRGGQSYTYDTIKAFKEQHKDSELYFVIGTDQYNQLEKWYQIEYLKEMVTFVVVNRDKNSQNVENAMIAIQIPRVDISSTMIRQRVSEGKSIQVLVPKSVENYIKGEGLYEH

Ion channel NompC = Ion channel NompC (Danio rerio, UniProt Q7T1G6); assay: Dose response cell-based high-throughput screening assay for agonists of the transient receptor potential channel N1 (TRPN1). [Related pubchem assays (depositor defined):AID1424, AID1448]; assay type: functional
[8] = molecular target: T3, Probable nicotinate-nucleotide adenylyltransferase; assay type: functional, Staphylococcus aureus subsp. aureus N315; settings: read-out: IC50_Mean
Perilipin-1/ABHD5 = Perilipin-1/ABHD5 (Homo sapiens, UniProt O60240+Q8WTS1); assay: Luminescence-based biochemical high throughput dose response assay for inhibitors of the interaction of the lipase co-activator protein, abhydrolase domain containing 5 (ABHD5) with perilipin-1 (PLIN1) (2K validation set). [Related pubchem assays (depositor defined):AID493027, AID493057]
Perilipin-1/ABHD5, sequence (Q8WTS1 whole entry, the tested form may be a part): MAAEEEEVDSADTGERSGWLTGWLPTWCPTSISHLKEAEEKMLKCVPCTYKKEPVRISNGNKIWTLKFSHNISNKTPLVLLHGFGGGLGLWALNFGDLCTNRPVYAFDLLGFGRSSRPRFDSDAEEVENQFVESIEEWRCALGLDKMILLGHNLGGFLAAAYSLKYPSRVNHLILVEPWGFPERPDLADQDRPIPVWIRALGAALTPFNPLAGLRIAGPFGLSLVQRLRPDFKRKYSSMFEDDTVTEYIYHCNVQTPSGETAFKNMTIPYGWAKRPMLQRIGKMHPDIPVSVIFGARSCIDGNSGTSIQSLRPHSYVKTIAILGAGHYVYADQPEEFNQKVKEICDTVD
Perilipin-1/ABHD5, sequence (O60240 whole entry, the tested form may be a part): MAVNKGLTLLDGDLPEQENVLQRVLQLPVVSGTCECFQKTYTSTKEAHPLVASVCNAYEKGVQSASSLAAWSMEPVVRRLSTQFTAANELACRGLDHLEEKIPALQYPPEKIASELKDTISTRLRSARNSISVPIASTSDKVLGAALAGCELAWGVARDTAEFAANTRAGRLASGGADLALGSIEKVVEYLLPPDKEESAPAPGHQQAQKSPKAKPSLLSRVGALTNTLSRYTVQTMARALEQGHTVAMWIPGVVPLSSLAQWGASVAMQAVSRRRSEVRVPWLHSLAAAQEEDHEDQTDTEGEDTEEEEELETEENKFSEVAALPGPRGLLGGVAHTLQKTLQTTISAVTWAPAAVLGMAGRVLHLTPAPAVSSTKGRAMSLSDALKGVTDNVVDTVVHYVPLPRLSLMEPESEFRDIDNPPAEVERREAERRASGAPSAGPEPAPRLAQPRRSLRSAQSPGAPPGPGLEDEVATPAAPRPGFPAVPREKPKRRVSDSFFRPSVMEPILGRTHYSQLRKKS

[9] = molecular target: 1-acylglycerol-3-phosphate O-acyltransferase ABHD5/Perilipin-5 (Homo sapiens, UniProt Q00G26+Q8WTS1); assay: Luminescence-based biochemical high throughput dose response assay for inhibitors of the interaction of the lipase co-activator protein, abhydrolase domain containing 5 (ABHD5) with perilipin-5 (MLDP; PLIN5) (2K validation set). [Related pubchem assays (depositor defined):AID493035, AID493241]
1-acylglycerol-3-phosphate O-acyltransferase ABHD5/Perilipin-5, sequence (Q00G26 whole entry, the tested form may be a part): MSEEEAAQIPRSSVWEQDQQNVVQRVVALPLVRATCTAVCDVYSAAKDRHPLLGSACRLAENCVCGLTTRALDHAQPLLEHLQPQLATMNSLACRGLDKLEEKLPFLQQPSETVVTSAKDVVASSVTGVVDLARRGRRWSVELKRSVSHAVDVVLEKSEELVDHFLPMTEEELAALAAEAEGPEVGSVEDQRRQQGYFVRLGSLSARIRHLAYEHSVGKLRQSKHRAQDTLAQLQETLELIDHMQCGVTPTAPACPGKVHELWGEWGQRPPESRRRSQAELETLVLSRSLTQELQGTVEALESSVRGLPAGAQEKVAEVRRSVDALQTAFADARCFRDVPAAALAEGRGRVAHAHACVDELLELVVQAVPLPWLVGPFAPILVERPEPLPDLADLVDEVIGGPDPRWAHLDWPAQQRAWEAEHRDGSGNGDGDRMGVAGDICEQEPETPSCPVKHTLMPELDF
1-acylglycerol-3-phosphate O-acyltransferase ABHD5/Perilipin-5, sequence (Q8WTS1 whole entry, the tested form may be a part): as the sequence (Q8WTS1 whole entry, the tested form may be a part) above

Cytochrome P450 3A4 = Cytochrome P450 3A4 (Homo sapiens, UniProt P08684);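 further: CYP3A4 tested as one member of a cytochrome P450 panel screen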
Cytochrome P450 1A2 = molecular target: T4, Cytochrome P450 1A2 (Homo sapiens, UniProt P05177);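 further: PubChem cytochrome P450 panel assay, CYP1A2 panel member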
T4 sequence (P05177 whole entry): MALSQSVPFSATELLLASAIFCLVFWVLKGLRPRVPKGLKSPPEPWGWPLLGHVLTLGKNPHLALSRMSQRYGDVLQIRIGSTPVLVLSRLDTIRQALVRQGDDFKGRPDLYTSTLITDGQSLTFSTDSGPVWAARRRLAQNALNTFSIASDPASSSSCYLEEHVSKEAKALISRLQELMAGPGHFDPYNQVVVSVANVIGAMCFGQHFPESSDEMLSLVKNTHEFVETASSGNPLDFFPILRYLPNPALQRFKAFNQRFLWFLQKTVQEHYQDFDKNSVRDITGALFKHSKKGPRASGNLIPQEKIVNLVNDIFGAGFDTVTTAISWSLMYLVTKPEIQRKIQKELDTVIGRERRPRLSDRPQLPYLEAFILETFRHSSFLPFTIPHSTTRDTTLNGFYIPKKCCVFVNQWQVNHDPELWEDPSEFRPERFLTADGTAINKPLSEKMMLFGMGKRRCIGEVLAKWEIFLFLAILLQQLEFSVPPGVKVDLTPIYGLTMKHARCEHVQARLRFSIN

[10] = Artemis endonuclease inhibitor potency, dose response, biochemical, fluorescence intensity (AID 720701); assay type: functional;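 further: Artemis endonuclease enzyme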
Coagulation factor XII = Coagulation factor XII (Homo sapiens, UniProt P00748); assay type: functional;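 further: activated factor XIIa alpha cleaving a fluorogenic AMC peptide substrate; inhibitor potency from loss of enzyme activity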
Coagulation factor XII, sequence (P00748 20-372 limits assumed): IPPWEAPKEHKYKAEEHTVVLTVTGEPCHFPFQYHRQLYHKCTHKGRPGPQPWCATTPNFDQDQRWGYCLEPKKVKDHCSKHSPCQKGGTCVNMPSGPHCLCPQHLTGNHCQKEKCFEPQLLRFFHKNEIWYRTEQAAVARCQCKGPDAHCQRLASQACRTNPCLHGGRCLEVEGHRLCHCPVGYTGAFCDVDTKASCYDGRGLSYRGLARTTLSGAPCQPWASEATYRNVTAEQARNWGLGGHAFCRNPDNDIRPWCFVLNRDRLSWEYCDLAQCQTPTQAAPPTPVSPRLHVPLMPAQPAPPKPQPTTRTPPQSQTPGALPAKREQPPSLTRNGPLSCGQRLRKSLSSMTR
Coagulation factor XII, sequence (P00748 373-615 limits assumed): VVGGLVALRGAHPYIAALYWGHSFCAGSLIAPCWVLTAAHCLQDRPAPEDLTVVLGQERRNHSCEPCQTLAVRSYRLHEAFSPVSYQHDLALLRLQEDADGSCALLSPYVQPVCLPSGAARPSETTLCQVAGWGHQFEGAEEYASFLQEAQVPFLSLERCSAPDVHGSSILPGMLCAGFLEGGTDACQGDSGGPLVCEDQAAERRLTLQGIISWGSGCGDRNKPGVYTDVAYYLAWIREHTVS

HEK293 = assay: cells; settings: Homo sapiens;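 further: cells exposed to compound for 14 hours overnight before viability readout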
Tumor necrosis factor = Tumor necrosis factor (Homo sapiens, UniProt P01375); assay: TNFa-triggered NF-kB activation inhibitors, SAR follow-up, cell-based, revised (AID 2337); assay type: functional
Tumor necrosis factor, sequence (P01375 whole entry): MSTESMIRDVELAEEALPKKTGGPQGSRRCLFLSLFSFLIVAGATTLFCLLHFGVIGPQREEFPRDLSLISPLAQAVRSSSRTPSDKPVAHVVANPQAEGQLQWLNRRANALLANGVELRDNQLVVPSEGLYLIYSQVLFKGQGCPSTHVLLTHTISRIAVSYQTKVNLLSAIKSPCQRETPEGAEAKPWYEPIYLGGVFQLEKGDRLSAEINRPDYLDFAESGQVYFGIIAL

[11] = molecular target: T5, Alkaline phosphatase, tissue-nonspecific isozyme (Homo sapiens, UniProt P05186); assay: human TNAP enzyme inhibitors, SAR follow-up, biochemical, luminescent, dose response (AID 1056)
T5 sequence (P05186 whole entry): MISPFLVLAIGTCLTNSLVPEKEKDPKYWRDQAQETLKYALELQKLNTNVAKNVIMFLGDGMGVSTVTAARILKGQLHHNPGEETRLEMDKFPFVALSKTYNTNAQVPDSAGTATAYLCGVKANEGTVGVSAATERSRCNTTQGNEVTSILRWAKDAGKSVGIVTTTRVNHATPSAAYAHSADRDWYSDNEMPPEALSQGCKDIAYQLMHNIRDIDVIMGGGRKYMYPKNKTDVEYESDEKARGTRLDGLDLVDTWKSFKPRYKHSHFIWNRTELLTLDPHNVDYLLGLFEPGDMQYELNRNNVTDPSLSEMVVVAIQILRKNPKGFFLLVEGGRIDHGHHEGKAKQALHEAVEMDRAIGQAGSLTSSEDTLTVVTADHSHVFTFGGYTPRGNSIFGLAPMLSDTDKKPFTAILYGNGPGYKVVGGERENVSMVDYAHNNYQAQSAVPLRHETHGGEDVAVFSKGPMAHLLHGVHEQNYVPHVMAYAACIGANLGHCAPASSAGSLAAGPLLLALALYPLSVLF

[12] = molecular target: Phosphoethanolamine/phosphocholine phosphatase (Homo sapiens, UniProt Q8TCT1); assay: SAR assay for compounds that inhibit PHOSPHO1. [Related pubchem assays (depositor defined):AID1545, AID1565, AID1574]
Phosphoethanolamine/phosphocholine phosphatase, sequence (Q8TCT1 whole entry): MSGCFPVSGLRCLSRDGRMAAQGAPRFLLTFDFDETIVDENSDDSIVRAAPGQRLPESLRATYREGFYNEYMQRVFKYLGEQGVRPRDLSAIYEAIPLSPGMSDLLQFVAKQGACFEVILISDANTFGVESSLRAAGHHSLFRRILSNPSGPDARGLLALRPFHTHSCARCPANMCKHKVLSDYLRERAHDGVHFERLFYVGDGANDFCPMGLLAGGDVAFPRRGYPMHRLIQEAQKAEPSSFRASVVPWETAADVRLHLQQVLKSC

[13] = molecular target: T6, Mannose-6-phosphate isomerase (Homo sapiens, UniProt P34949); assay: PMI enzyme inhibitors, confirmation, biochemical, fluorescence intensity (AID 1535)
T6 sequence (P34949 whole entry): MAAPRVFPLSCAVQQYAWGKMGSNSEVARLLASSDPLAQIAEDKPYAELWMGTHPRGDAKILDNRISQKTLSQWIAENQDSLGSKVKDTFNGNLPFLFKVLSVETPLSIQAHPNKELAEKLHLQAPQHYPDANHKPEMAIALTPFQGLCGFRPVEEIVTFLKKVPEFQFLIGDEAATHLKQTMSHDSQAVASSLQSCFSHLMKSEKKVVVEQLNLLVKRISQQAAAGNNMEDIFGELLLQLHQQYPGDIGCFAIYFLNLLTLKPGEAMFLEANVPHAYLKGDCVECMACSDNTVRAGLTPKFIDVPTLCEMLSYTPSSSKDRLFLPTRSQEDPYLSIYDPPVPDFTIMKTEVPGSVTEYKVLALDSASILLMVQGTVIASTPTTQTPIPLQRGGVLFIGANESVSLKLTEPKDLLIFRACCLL

Phosphomannomutase 2 = molecular target: T7, Phosphomannomutase 2 (Homo sapiens, UniProt O15305); assay: Counter screen SAR assay for PMM2 inhibitors via a fluorescence intensity assay. [Related pubchem assays (depositor defined):AID1545, AID1574]
T7 sequence (O15305 whole entry): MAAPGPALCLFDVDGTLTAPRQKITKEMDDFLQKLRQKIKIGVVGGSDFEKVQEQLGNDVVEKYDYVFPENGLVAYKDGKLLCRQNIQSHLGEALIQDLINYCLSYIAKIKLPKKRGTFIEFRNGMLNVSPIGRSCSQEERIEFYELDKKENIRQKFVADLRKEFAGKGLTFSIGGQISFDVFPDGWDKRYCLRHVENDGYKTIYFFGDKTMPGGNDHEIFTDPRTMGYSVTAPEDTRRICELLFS

[14] = molecular target: T8, Intestinal-type alkaline phosphatase (Homo sapiens, UniProt P09923); assay: human intestinal alkaline phosphatase activators, dose response, biochemical, luminescence, uHTS hits (AID 463120); assay type: functional
T8 sequence (P09923 whole entry): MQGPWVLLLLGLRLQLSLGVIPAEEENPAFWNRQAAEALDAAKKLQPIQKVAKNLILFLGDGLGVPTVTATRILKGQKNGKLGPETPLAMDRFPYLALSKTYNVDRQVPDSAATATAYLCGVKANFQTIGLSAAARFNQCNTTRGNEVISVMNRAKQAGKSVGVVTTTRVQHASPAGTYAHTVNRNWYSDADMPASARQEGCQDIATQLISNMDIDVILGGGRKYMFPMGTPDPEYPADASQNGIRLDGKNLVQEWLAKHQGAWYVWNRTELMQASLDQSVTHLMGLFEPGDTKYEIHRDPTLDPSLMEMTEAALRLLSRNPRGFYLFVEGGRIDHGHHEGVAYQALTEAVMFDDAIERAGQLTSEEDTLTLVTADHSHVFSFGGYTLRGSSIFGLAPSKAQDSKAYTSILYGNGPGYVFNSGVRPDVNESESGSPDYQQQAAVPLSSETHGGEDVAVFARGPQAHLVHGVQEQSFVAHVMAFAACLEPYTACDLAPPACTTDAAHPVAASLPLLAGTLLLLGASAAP

[15] = molecular target: T5, Alkaline phosphatase, tissue-nonspecific isozyme; assay: TNAP enzyme activators, dose response, selectivity assay for human IAP activator project, biochemical, TNAP isozyme, human IAP uHTS hits (AID 488886); assay type: functional;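 further: potency of compounds raising TNAP activity as a selectivity check on IAP activators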
[16] = molecular target: T8, Intestinal-type alkaline phosphatase; assay: human IAP activators, dose response, biochemical, luminescent, uHTS hits, set 2 (AID 488817); assay type: functional;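 further: potency of activators that raise enzyme activity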
[17] = molecular target: Intestinal-type alkaline phosphatase (Mus musculus, UniProt P24822); assay: PubChem AID 488874; assay type: functional

SUMO-activating enzyme, sequence (Q9UBE0 whole entry): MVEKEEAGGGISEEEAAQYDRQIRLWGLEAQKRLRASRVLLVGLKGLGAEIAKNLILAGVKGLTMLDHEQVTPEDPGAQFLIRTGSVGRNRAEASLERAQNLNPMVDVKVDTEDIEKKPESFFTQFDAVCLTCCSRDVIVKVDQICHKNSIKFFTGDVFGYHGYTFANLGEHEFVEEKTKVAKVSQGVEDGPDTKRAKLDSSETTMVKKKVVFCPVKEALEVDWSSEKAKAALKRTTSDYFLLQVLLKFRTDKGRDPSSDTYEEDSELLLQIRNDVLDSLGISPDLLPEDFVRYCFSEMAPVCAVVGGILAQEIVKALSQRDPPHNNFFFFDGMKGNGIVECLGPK
SUMO-activating enzyme, sequence (Q9UBT2 whole entry): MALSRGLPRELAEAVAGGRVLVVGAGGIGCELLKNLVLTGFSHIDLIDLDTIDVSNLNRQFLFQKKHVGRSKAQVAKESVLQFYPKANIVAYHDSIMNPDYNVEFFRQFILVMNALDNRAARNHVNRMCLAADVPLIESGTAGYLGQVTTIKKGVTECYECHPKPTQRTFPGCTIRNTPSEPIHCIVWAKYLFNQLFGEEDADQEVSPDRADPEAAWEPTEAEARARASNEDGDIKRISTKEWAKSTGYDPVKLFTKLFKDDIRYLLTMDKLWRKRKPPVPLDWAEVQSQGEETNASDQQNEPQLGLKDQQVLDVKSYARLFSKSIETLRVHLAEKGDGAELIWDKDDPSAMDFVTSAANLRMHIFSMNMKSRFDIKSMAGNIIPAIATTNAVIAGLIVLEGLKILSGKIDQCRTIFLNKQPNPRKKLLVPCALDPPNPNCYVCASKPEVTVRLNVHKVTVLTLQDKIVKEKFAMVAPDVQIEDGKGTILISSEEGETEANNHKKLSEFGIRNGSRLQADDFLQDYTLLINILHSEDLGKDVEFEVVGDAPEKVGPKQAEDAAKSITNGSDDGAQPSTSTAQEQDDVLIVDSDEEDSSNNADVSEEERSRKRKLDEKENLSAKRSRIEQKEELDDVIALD

Structure (SMILES): CCOc1ccc(-n2c(SCC(=O)Nc3ccc(CC)cc3)nc3nnc(C)c-3c2N)cc1
- IC50 (SUMO-activating enzyme): 36.9 µM (active)

Structure (SMILES): C=CC#CC1(O)CC(C)[N+](C)(C)CC1C (stereo not drawn)
- IC50 [1]: 1.97 µM (active)
- IC50 [2]: 7.57 µM (active)
- IC50 [3]: 5.58 µM (active)

Structure (SMILES): O=C(NC(=S)N1CCc2ccccc21)c1ccccc1
- IC50 (cells): 9.86 µM (active)
- CC50 [4]: > 20 µM (active)
- CC50 [5]: > 40 µM (active)
- CC50 [6]: > 20 µM (active)

Structure (SMILES): COc1ccc(C(=O)NNC(=S)NC(=O)c2cc(-c3ccccc3)nc3ccccc23)cc1
- EC50 (Mucolipin-3): > 29.9 µM (not active)
- IC50 [7]: 7.14 µM (active)
- EC50 (Ion channel NompC): > 29.9 µM (inactive)
- IC50 [8]: 26.4 µM (active)

Structure (SMILES): N#C/C(=C/c1ccccc1)C(=O)NCc1ccccc1
- IC50 (Perilipin-1/ABHD5): 13.1 µM (inactive)
- IC50 [9]: 17.2 µM (inactive)

Structure (SMILES): Cc1ccc(C2=NOC(=O)/C2=C\C=C\c2ccccc2)cc1
- IC50 (Perilipin-1/ABHD5): 1.23 µM (active)
- IC50 [9]: 1.12 µM (active)

Structure (SMILES): CCN1CCc2nc(NC(=O)CC(c3ccccc3)c3ccccc3)sc2C1
- AC50 (Cytochrome P450 3A4): inconclusive
- AC50 (Cytochrome P450 1A2): 15.8 µM (inconclusive)
- IC50 [10]: 9.25 µM (active)

Structure (SMILES): CCN1C(NCc2cc(OC)c(OC)c(OC)c2)=N[C@@H](c2ccccc2)C(C(=O)OC)=C1C
- IC50 [1]: 4.15 µM (active)
- IC50 [3]: 3.54 µM (active)

Structure (SMILES): CNS(=O)(=O)c1cc(C(=O)O)ccc1OC
- IC50 (Coagulation factor XII): > 50 µM (inactive)

Structure (SMILES): CC(=O)c1ccc(N2CCN(S(=O)(=O)c3ccc4c(c3)CCN4C(C)=O)CC2)cc1
- IC50 (HEK293): > 20 µM (inactive)
- IC50 (Tumor necrosis factor): 13.2 µM (active)

Structure (SMILES): Cc1ccc(C)c(-n2sc3cc(F)ccc3c2=O)c1
- IC50 [11]: > 100 µM (inactive)
- IC50 [12]: 4.1 µM (inactive)
- IC50 [13]: 0.985 µM (active)
- IC50 (Phosphomannomutase 2): 9.95 µM (active) and 4.57 µM (active)

Structure (SMILES): Cc1ccc(S(=O)(=O)NCCC(=O)NNC(=O)COc2ccc(Br)cc2)cc1C
- EC50 [14]: 11.5 µM (active)
- EC50 [15]: 16.4 µM (active)
- EC50 [16]: 16 µM (active)
- IC50 [17]: 89.4 µM (active)

Structure (SMILES): CC(C)=CCC/C(C)=C/CC/C(C)=N/O
- IC50 (Coagulation factor XII): > 50 µM (inactive)
